From paper PMC3731320, “Identification of Benzimidazole Diamides as Selective Inhibitors of the Nucleotide-Binding Oligomerization Domain 2 (NOD2) Signaling Pathway” (PLoS ONE, 2013)
Entries after “also recorded” stand apart in the source; their conditions may differ. Where two headings read alike, the source gives them in different places.

What was measured:
[1] = test system: NOD2; experiment: MDP-stimulated IL-8 secretion in NOD2 BacMam transduced HEK293T cells; type: cell-based, human
Experimental: (§1) Over-expression of NOD1 and NOD2 was achieved by transduction of HEK293T cells with either NOD1 or NOD2 BacMam recombinant baculoviruses. […] The effect of compounds on activator-independent NOD1/2 signaling was determined by 30 minute pre-treatment of cells (in 96-well plates seeded the previous day in DMEM high glucose with 10% FBS at 60,000 cells/well) followed by infection with NOD1 or NOD2 BacMam virus (MOI = 50). IL-8 was measured in conditioned medium after 24 hour incubation at 37 °C. To determine the effect of compounds on NOD1/2 activator-dependent IL-8 secretion in BacMam transduced HEK293T, the cells were infected with virus for 6 hours (MOI = 50), and following the removal of virus the cells were cultured over-night. The next day medium was again replaced and cells pre-treated with compound for 30 minutes followed by stimulation with either MDP (30 ng/mL) or iE-DAP (300 ng/mL). IL-8 was measured in conditioned medium by HTRF after 24-hour incubation at 37 °C.

[2] = test system: NOD2; experiment: MDP-stimulated IL-8 release in HCT116 cells (endogenous NOD2); type: cell-based, human
Experimental: (§2) Compound activity on endogenous NOD1 and NOD2 receptors was determined by inhibition of either Tri-DAP or MDP-stimulated IL-8 release, respectively, using HCT116 human colon carcinoma cells. […] The cells were maintained in DMEM high glucose medium supplemented with 25 mM HEPES and 10% FBS. For assay, cells were seeded into 96 well plates (90,000 cells/well) in DMEM containing 1% FBS and pre-incubated with compounds for 1 hour before addition of either 1 μg/mL MDP or 25 μg/mL Tri-DAP. The level of IL-8 released into medium after 24-hour incubation was determined by HTRF assay as described above and fluorescence measured on an Envision model 2102 multilabel plate reader (Perkin Elmer).

[3] = test system: NOD2; experiment: MDP-stimulated IL-8 release in 293/hNOD2 cells (HTRF); type: cell-based, human; conditions: for IC50: Homo sapiens
Experimental: (§3) After 24 hours the amount of IL-8 secreted into the medium was determined by homogeneous time resolved fluorescence (HTRF) assay by the direct addition of a 1:1 mix of europium cryptate and XL665-conjugated anti-IL-8 antibodies according to the manufacturer's instructions (Cisbio).

[4] = test system: TLR2; experiment: Pam2CSK4-stimulated IL-8 release in 293/hTLR2 cells; type: cell-based, human; conditions: read-out: IC50 293/hTLR2 Pam2CSK4, IL-8 end-point, 3–10 ng/mL Pam2CSK4
Experimental: as §3

[5] = test system: TNFR1; experiment: TNFα-stimulated (TNFR1-induced) IL-8 release in 293/hNOD2 cells; type: cell-based, human; conditions: read-out: IC50 293/hNOD2 TNFα, IL-8 end-point, 20 ng/mL rhTNFα
Experimental: as §3

[6] = test system: NOD1; experiment: Tri-DAP-stimulated IL-8 release in HCT116 cells (endogenous NOD1); type: cell-based, human
Experimental: as §2

[7] = test system: NOD2; experiment: ssRNA-induced IFNβ gene expression in 293/hNOD2 cells (real-time RT-PCR); type: cell-based, human; conditions: GSK669 0.16–16 μM, RIP2 inhibitor 0.1 μM, mRNA after 6 hours
Experimental: Cells seeded in 96-well plates at sub-confluent density (60,000/well) in DMEM + 1% FBS were transfected for 6 hours with ssRNA40 (1.25–6.67 μg/mL) using lipofectamine 2000 (Invitrogen) and RNA/liposome complexes prepared in Opti-MEM1 medium (Invitrogen). Induction of IFNβ gene expression was measured by real-time reverse transcription PCR (Taqman). RNA was isolated from cell extracts in Trizol (Invitrogen) using the RNeasy kit (Qiagen), and mRNA quantified following reverse transcription and PCR amplification using Taqman reverse transcription and Taqman PCR core reagent kits, pre-formulated primer/probe mixes and ABI 7900 sequence detection system (Applied Biosystems). Expression of IFNβ (ABI primer/probe mix Hs01077958_s1) was normalized to 18S ribosomal RNA.

[8] = test system: NOD2; experiment: IL-8 secretion induced by NOD2 over-expression (BacMam) in HEK293T cells, activator-independent; type: cell-based, human
Experimental: as §1

[9] = test system: NOD1; experiment: iE-DAP-stimulated IL-8 release in 293/hNOD1 cells (HTRF); type: cell-based, human; conditions: 60 ng/mL iE-DAP
Experimental: as §3

[10] = test system: NOD2; experiment: MDP-stimulated cytokine release in primary human monocytes; type: cell-based; conditions: primary human monocytes
Experimental: […] The concentration of IL-1β, IL-6 and TNFα in medium samples collected after 24-hour treatment was determined using the MS6000 human pro-inflammatory-4 II tissue culture kit (Meso Scale Discovery). The IL-8 concentration was determined by HTRF.

[11] = test system: 300 human kinases; experiment: Kinase panel profiling (Reaction Biology Corp); type: biochemical; conditions: compound at 1 μM; 10 μM ATP; any kinase of the panel
Experimental: The original hit compound identified as a selective inhibitor of the NOD2 pathway was profiled for inhibitory activity against 300 human kinases (Reaction Biology Corp). The compound was tested in duplicate at a single concentration (1 μM) and was pre-incubated with enzyme for 20 minutes prior to addition of 10 μM ATP.

[12] = test system: NOD2; experiment: Western blot of MAPK phosphorylation and IκBα in MDP-stimulated 293/hNOD2 cells; type: cell-based, human; conditions: GSK669 at 1 and 10 μM
Experimental: Confluent cultures of 293/-hNOD1 and -hNOD2 cells in 24-well plates were serum-starved over-night. The next day, cells were pre-incubated for 1 hour with compound and then stimulated for 1 hour with either 50 μg/mL Tri-DAP or 25 μg/mL MDP, respectively. Whole cell lysates were prepared in 1X cell lysis buffer (Cell Signaling Technology) containing additional inhibitors of aspartic, cysteine and serine proteases and aminopeptidases (protease inhibitor cocktail set III, EMD Biosciences) and inhibitors of multiple phosphatases (phosphatase inhibitor cocktail sets II and III, Sigma-Aldrich). The levels of phosphorylated and total p38, JNK, ERK1/2 and total IκBα were determined by immunoblotting of ∼20 μg protein per sample using the following primary antibodies: phospho-p38 MAPK (12F8, #4631), p38 MAPK (#9212), phospho-JNK (#9251), JNK (#9252) and IκBα (#9242) all purchased from Cell Signaling Technology, and phospho-ERK1/2 (sc-7383) and ERK1/2 (sc-94) antibodies from Santa Cruz Biotechnology.

O=C(Cn1c(CCNC(=O)c2ccccc2)nc2ccccc21)Nc1ccc2c(c1)CCC2 [Compound 1, N-(2-(1-(2-((2,3-dihydro-1H-inden-5-yl)amino)-2-oxoethyl)-1H-benzo[d]imidazol-2-yl)ethyl)benzamide]
effect on MDP response in NOD2 transduced cells, single concentration ([1]; HEK293T, 6 hours virus then MDP 30 ng/mL, GSK669 5 μM, IKK inhibitor 0.5 μM): selectively blocked the MDP response | IC50 ([1]; Homo sapiens, HEK-293T, 6 hours transduction, then MDP 30 ng/mL 24 hours, IL-8, read-out: IC50, MDP response in NOD2 transduced HEK293T cells): 0.5 µM | IC50 ([2]; Homo sapiens, HCT-116, IL-8 end-point, 1 μg/mL MDP): 0.5 ± 0.2 µM | effect on IL-8 secretion induced by MDP in HCT116 cells ([2]; MDP 1 μg/mL, 1 hour pre-treatment): dose-dependently inhibited | IC50 ([3]; read-out: IC50 293/hNOD2 MDP): 3.2 µM | IC50 ([3]; MDP-stimulated IL-8 production assay in 293/hNOD2 cells, Figures 4 and 5, read-out: NOD2 IC50): 3.3 ± 1.6 µM | fold less active in the selectivity assays than on the NOD2 pathway ([3]; all selectivity assays vs NOD2 IC50): at least 10 fold | IC50 ([4]; listed as GSK669): > 30 µM | IC50 ([4]; listed as GSK669 (1)): > 80 µM | IC50 ([5]; listed as GSK669): > 30 µM | IC50 ([5]; listed as GSK669 (1)): > 100 µM | IC50 ([6]; Homo sapiens, HCT-116, IL-8 end-point, 25 μg/mL Tri-DAP): > 50 µM | effect on IL-8 secretion induced by Tri-DAP in HCT116 cells ([6]; Tri-DAP 25 μg/mL, 1 hour pre-treatment): had no effect | effect on ssRNA-induced IFNβ expression [7]: unaffected; also recorded: did not block | effect on IL-8 secretion induced by NOD2 virus alone, single concentration ([8]; MOI 50, 24 hours, GSK669 5 μM, IKK inhibitor 0.5 μM): failed to block IL-8 secretion | effect on IL-8 secretion induced by NOD2 over-expression ([8]; NOD2 virus 24 hours, GSK669 up to 50 μM): failed to inhibit this response | IC50 ([9]; Homo sapiens, read-out: IC50 293/hNOD1 iE-DAP, IL-8 end-point): > 30 µM | IC50 ([9]; read-out: IC50 293/hNOD1 iE-DAP, IL-8 end-point, listed as GSK669 (1)): > 50 µM | effect on MDP-stimulated cytokine secretion, single concentration ([10]; compound 5 μM, MDP 0.1 μg/mL, IL-1β, IL-6, IL-8, TNFα, 24 hours): partial inhibition | effect on release of IL-8, IL-6, TNFα and IL-1β in monocytes stimulated with MDP ([10]; dose response): dose-dependently inhibited | inhibition of kinase activity, panel of 300 human kinases [11]: ≤ 50% | effect on MDP-induced p-p38, p-JNK and total IκBα [12]: prevented MDP-induced increases in p-p38 and p-JNK and MDP-induced reduction in total IκBα
